{
  "source": "patent US20160082141A1",
  "about": "“CHITIN AND ALGINATE COMPOSITE FIBERS” (THE BOARD OF TRUSTEES OF THE UNIVERSITY OF ALABAMA, priority 2013, published 2016)",
  "origin": "cited, not measured here",
  "details": "Dubbs and Gupta 1998",
  "data": [
    {"smiles": "Cc1c(C)c2c(c(C)c1O)CC[C@@](C)(CCC[C@H](C)CCC[C@H](C)CCCC(C)C)O2", "note": "[Vitamin E, α-tocopherol]", "values": [
      {"measurement": "Solubility in water, mass fraction", "result": "20.9×10^−6 g vitamin E/g water"},
      {"measurement": "Solubility in water, mol fraction", "result": "0.87×10^−6 mole vitamin E/mole water"}
    ]}
  ]
}
